Assay results reported in patent US20260294922A1, “Inhibitors of JUN N-Terminal Kinases (JNK1, JNK2, and/or JNK3) and Mitogen-Activated Protein Kinases (MAPK8, MAPK9, and/or MAPK10) and Methods of Using Same” (Baylor College of Medicine, priority 2023, published 2026).
Entries after “also recorded” stand apart in the source; their conditions may differ.

Assays:
[1] = system: 12Z endometriotic epithelial cells; test: IL-1β-stimulated pro-inflammatory gene expression (qPCR) in 12Z cells; format: cell-based, human; conditions: relative to bentamapimod
Source text: These studies indicate that NanoBRET assays are an innovative technical platform to measure target engagement of CDD JNK inhibitors with the target JNK1, JNK2 or JNK3. As further evidence that JNK inhibitors address disease-relevant endpoints, biological responses of JNK inhibitors are provided herein, as measured in target tissue cellular models. 12Z immortalized endometriotic epithelial cells and patient-derived endometriotic stromal cells have been cultured with reference compound bentamapimod, CDD-2628, and CDD-2728. To exemplify the effects of CDD-2628 and CDD-2728 in the endometrial cell cultures, gene expression was measured using qPCR (expressed as fold-change relative to GAPDH, a housekeeping gene that is not affected by culture treatment effects) that reflect synthesis of inflammatory lipids (PTGS2), transformation of cells to a more migration and invasive potential (MMP-3) and chemoattractant cytokines to recruit pro-inflammatory immune cells (IL-6, IL-8).
In the culture systems employed in FIGS. 12A-12J, FIGS. 13A-13B, FIGS. 14A-14H, FIGS. 15A-15H, and FIGS. 16A-16F, the treatment of cells with IL-1β is used to mimic the peritoneal environment where IL-1β is most frequently measured at higher concentrations in patients with endometriosis (0.1 ng/mL-1 ng/mL) than in unaffected women (<0.01 ng/mL). The use of IL-1β to mimic the pro-inflammatory environment is a common method in cellular assays for endometriosis research. Although the concentrations of IL-1β in these cell cultures are higher than measured in peritoneal fluid, there are multiple other pro-inflammatory cytokines in peritoneal fluid that contribute to the pro-inflammatory environment.
Specifically, 12Z cells were plated at a density of 1×10^5 cells/well in a 12-well tissue culture plate, serum-starved overnight (17-18 h), pre-treated with vehicle (DMSO) or JNK inhibitor for 30 minutes, then stimulated with 10 ng/ml IL-1β in the presence or absence of the JNK inhibitors for 6 hours. After the 6-hour treatment, mRNA was extracted from the cells using the Qiagen RNEasy mini isolation kit and […] of mRNA was reverse transcribed into cDNA using the qScript cDNA Supermix (Quanta Biosciences). cDNA was amplified using SYBR Green Master Mix (Applied Biosystems) with quantitative Real Time PCR (BioRad CFX) using pre-designed and validated primers specific for genes encoding IL6, IL8, PTGS2/COX2, and MMP3 (BioRad). Relative quantification of these specific genes was calculated by the ΔΔCt method, normalizing their abundance relative to the internal housekeeping gene, GAPDH, followed by quantification relative to the vehicle-treated cells. Statistical analyses and visualizations were performed using a One Way ANOVA with a Tukey's multiple comparison post-hoc test on GraphPad Prism version 9.

[2] = Phase 1 volunteers / IPF; cited from earlier work
[3] = target: T1, JNK2 (MAPK9) (Homo sapiens, UniProt P45984); test: Eurofins KdSelect, JNK2 (MAPK9); format: binding; conditions: Table 2; IC50 nM; read-out: JNK2 (MAPK9), based on Kd select results
T1 construct: purchased Eurofins (KdSelect service)
T1 sequence (P45984 whole entry): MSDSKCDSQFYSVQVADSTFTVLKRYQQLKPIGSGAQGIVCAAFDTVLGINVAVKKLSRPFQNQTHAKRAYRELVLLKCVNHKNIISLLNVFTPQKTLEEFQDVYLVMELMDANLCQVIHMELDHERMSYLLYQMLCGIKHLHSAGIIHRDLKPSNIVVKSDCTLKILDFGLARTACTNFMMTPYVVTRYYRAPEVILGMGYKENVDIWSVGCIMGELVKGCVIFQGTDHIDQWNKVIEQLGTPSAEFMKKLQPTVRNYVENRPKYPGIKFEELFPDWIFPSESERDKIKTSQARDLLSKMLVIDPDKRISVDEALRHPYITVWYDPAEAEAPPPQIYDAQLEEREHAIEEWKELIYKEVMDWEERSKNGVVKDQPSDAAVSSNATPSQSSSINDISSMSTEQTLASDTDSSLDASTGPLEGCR

[4] = target: T2, JNK1 (Homo sapiens, UniProt P45983); test: Promega NanoBRET intracellular target engagement (tracer K10 displacement), JNK1; format: cell-based; conditions: cyano group
T2 sequence (P45983 whole entry): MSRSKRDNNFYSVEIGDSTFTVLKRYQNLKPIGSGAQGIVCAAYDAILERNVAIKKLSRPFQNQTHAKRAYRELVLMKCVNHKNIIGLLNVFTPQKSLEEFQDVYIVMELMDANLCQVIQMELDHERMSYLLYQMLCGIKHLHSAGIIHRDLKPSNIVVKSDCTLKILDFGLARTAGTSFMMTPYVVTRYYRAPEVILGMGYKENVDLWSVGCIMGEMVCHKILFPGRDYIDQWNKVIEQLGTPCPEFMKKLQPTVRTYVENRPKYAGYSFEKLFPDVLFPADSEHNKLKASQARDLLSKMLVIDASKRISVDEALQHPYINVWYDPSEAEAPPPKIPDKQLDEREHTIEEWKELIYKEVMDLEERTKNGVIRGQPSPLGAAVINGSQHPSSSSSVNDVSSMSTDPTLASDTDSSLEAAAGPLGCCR

[5] = target: T2, JNK1; test: JNK1 kinase (intrinsic ATPase, Kinase-Glo) assay; format: biochemical; conditions: Table 3b; read-out: Ki(app) JNK1
How it was run: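 Full-length construct not stated; kinases hydrolyse ATP without peptide substrate, reaction run 30 or 60 min at 30° C, remaining ATP read by Kinase-Glo luminescence with no-kinase controls. Apparent Ki from normalized fractional activities fitted to modified Morrison tight-binding equation; orthogonal LanthaScreen binding assay gave IC50.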

[6] = target: T3, JNK3 (MAPK10) (Homo sapiens, UniProt P53779); test: Eurofins KdSelect, JNK3 (MAPK10); format: binding; conditions: Table 2; IC50 nM; read-out: JNK3 (MAPK10), based on Kd select results
T3 construct: purchased Eurofins (KdSelect service)
T3 sequence (P53779 whole entry): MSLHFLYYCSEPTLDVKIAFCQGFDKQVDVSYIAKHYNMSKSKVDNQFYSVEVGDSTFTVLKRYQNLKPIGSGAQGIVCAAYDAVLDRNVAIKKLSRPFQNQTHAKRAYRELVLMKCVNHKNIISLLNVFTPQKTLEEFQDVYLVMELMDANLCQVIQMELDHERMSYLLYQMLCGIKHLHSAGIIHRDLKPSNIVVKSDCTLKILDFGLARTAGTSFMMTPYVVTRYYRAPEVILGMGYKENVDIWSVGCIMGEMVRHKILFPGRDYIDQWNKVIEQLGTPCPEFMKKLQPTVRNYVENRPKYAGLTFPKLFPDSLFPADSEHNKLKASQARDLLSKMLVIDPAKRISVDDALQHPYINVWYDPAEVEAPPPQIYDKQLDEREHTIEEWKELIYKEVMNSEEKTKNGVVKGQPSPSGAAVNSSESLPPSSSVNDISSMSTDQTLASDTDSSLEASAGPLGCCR

[7] = system: 480 kinases; test: Eurofins KINOMEscan selectivity profile; format: binding; conditions: Bentamapimod and Tanzisertib at 1 μM; listed as BEND
[8] = target: JNK2 (Homo sapiens, UniProt P45984); test: JNK2 kinase (intrinsic ATPase, Kinase-Glo) assay; format: biochemical; conditions: Table 3b; read-out: Ki(app) JNK2
JNK2, sequence (P45984 whole entry): as the sequence (P45984 whole entry) above

[9] = target: T4, MEK4 (Homo sapiens, UniProt P45985); test: KINOMEscan, MEK4; format: binding
T4 construct: purchased ThermoFisher (SelectScreen)
T4 sequence (P45985 1-399): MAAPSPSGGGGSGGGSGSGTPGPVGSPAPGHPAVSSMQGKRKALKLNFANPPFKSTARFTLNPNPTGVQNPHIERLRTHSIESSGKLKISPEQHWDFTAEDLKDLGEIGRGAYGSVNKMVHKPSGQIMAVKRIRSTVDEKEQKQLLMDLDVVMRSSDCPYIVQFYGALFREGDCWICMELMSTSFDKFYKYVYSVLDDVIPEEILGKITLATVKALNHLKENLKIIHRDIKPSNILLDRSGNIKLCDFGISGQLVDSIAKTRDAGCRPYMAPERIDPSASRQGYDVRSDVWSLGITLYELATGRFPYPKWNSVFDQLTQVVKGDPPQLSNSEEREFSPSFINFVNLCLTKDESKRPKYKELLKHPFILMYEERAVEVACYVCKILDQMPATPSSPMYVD

[10] = target: Other MAPK; test: Eurofins KdSelect, other MAPK; format: binding; conditions: Table 2; IC50 nM; read-out: Other MAPK, based on Kd select results
Source text: The next step was to confirm that the compounds that bound to JNK1, JNK2 or JNK3 in a competitive manner, relative to bentamapimod, were inhibitors of the ATP-dependent kinase activity in assays. In many cases, the results have been replicated at ThermoFisher using their SelectScreen technology platform. Based on knowledge about JNK inhibitors, and the results of DEC-Tec selections, a target compound profile was developed (Table 2).
The efficacy and selectivity of BEND and TANZ were used to define a realistic preliminary target compound profile (Table 2) for the next generation of JNK1-3 inhibitors for the treatment of endometriosis.

[11] = target: T5, JNK1 (MAPK8) (Homo sapiens, UniProt P45983); test: Eurofins KdSelect, JNK1 (MAPK8); format: binding; conditions: Table 2; IC50 nM; read-out: JNK1 (MAPK8), based on Kd select results
T5 construct: purchased Eurofins (KdSelect service)
T5 sequence (P45983 whole entry): as the sequence (P45983 whole entry) above

[12] = target: JNK3 (Homo sapiens, UniProt P53779); test: JNK3 kinase (intrinsic ATPase, Kinase-Glo) assay; format: biochemical; conditions: Table 3b; read-out: Ki(app) JNK3
JNK3, sequence (P53779 whole entry): as the sequence (P53779 whole entry) above

Which results are given for `N#CC(c1ccnc(OCc2ccc(CN3CCOCC3)cc2)n1)c1nc2ccccc2s1` (centres unmarked) [CDD-939, bentamapimod]?
PTGS2 expression [1]: concentration-dependent decreases; IL-6 expression ([1]; listed as Bentamapimod): concentration-dependent decreases; IL-6 expression ([1]; listed as bentamapimod): equally effective; clinical safety [2]: deemed safe; Kd [3]: 170 nM; interference with NanoBRET readout [4]: interferes with the assay readout; Ki [5]: 220 nM; Kd [6]: 130 nM; KINOMEscan selectivity / inhibition [7]: JNK1-3 (CMGC family), were inhibited; also recorded: highly selective; Ki [8]: 640 nM; MEK4 inhibition in KINOMEscan [9]: does not inhibit MEK4; Kd [10]: > 1000 nM; Kd [11]: 270 nM; Ki [12]: 39 nM
